This is an account of results in US10683282B2, “Multi-substituted pyrimidine derivatives with excellent kinase inhibitory activities” (KOREA INSTITUTE OF SCIENCE AND TECHNOLOGY, priority 2018, dated 2020).

One series has as its target T1, ARK5/NUAK1 (Homo sapiens, UniProt O60285).
T1 construct: purchased Reaction Biology Corporation
T1 sequence (O60285 1-661): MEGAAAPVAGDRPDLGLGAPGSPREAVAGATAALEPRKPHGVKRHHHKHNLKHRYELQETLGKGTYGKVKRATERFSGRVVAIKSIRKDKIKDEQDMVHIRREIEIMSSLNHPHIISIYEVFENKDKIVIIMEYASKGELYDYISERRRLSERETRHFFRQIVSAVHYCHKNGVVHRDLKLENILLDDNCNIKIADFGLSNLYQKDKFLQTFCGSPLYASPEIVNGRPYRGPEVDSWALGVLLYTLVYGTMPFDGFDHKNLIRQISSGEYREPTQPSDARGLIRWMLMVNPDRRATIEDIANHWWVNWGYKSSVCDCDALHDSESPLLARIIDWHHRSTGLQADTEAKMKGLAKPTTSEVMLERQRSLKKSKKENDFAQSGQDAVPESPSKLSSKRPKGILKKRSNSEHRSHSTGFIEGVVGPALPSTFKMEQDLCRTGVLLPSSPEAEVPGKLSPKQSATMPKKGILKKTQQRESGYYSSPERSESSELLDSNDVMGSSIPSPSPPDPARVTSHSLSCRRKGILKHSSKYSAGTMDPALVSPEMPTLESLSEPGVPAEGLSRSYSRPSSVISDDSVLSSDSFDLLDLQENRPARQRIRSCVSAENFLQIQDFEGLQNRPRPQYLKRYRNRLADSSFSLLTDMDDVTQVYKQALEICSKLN
The series can be described thus: Kinase screening, HotSpot assay (Reaction Biology). Type of series: biochemical. Here is the method: (§1) Kinase screening was performed using a “HotSpot” assay platform method by Reaction Biology Corporation. The reaction buffer used herein contained 20 mM HEPES (pH 7.5), 10 mM MgCl2, 1 mM EGTA, 0.02% Brij35, 0.02 mg/mL BSA, 0.1 mM Na3VO4, 2 mM DTT and 1% DMSO. The required cofactors were added in accordance with the kinase reaction. Freshly made buffer and cofactors were added at a concentration of 20 μM during the selected enzyme reaction. A solution of the test compound in dimethylsulfoxide (DMSO) was added at a suitable concentration to this solution. In order to initiate reaction, […] (specific activity […]) was added and incubated at room temperature for 2 hours. The test compound was screened at a starting concentration of 20 μM in a 10-dose IC50 mode. IC50 of Staurosporine used as a control drug was obtained at a starting concentration of 20 μM in a 10-dose IC50 mode.

For a further series, the target named is T2, JAK1 (Homo sapiens, UniProt P23458).
T2 construct: purchased Reaction Biology Corporation
T2 sequence (P23458 whole entry): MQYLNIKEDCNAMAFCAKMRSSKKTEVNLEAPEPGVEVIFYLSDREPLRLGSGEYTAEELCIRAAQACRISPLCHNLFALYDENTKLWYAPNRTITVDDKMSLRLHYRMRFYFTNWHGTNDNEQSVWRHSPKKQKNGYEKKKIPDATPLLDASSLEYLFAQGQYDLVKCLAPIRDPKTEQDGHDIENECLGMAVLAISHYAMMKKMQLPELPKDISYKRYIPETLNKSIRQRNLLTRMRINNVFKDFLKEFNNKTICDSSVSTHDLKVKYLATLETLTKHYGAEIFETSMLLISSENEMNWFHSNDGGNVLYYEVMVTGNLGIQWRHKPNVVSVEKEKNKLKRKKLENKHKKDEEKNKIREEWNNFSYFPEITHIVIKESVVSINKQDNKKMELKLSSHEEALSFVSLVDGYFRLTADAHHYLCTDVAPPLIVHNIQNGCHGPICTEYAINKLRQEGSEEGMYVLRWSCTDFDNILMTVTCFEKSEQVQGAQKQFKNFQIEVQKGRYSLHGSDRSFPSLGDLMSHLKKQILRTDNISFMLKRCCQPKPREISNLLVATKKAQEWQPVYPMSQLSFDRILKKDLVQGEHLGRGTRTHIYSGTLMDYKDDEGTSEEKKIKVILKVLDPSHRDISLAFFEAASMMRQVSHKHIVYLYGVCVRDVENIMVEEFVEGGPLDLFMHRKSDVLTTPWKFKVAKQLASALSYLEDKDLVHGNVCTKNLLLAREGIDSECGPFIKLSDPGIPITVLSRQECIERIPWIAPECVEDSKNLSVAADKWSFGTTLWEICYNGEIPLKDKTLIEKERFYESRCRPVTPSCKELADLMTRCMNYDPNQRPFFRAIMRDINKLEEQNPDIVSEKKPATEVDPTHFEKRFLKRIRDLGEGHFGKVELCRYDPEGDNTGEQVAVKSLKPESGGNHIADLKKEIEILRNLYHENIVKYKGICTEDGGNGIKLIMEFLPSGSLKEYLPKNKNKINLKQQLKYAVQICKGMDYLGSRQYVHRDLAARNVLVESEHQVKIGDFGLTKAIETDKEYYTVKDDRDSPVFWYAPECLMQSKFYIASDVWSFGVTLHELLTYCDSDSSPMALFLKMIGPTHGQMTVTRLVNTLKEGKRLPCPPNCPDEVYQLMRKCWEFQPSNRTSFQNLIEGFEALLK
The series can be described thus: Kinase screening, HotSpot assay (Reaction Biology). It counts as biochemical. Here is the method: as §1

For a further series, the target named is T3, JAK2 (Homo sapiens, UniProt O60674).
T3 construct: purchased Reaction Biology Corporation
T3 sequence (O60674 whole entry): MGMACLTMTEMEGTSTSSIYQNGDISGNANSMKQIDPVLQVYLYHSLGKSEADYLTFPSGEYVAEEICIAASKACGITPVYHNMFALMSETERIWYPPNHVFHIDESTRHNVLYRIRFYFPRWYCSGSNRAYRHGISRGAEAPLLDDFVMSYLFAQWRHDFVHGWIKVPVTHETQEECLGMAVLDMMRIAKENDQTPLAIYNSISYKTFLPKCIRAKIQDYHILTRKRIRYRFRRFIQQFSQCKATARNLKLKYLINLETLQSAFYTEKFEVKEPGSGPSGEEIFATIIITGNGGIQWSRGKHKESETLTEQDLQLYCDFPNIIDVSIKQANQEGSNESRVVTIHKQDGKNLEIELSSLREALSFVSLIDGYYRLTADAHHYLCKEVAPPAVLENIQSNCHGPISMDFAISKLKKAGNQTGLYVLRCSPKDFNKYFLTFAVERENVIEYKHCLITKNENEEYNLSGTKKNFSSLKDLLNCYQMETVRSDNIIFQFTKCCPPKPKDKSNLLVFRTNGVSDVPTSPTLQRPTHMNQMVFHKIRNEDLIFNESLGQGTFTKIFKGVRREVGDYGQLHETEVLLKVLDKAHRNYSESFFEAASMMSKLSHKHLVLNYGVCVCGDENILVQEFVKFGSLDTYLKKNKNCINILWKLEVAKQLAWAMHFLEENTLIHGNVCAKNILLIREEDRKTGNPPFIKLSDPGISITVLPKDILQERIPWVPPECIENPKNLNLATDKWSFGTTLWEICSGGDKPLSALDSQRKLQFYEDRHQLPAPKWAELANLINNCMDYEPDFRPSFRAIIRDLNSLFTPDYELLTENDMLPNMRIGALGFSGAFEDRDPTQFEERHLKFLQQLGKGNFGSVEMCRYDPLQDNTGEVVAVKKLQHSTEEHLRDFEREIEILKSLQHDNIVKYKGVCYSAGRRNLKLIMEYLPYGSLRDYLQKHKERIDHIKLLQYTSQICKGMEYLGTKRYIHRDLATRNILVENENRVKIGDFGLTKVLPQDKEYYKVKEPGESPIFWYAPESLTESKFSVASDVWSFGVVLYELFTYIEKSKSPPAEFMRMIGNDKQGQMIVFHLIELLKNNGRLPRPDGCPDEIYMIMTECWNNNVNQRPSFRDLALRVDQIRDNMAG
The series can be described thus: Kinase screening, HotSpot assay (Reaction Biology). Type of series: biochemical. Here is the method: as §1

The next series deals with T4, FLT3 (D835Y) (Homo sapiens, UniProt P36888, D835Y).
T4 construct: purchased Reaction Biology Corporation
Briefly: FLT3 mutant enzyme activity, HotSpot assay. Type of series: biochemical. The note with it: ATP 10 μM. Here is the method:
as §1

The target in a further series is FLT3 (ITD) (Homo sapiens, UniProt P36888). The series can be described thus: FLT3 mutant enzyme activity, HotSpot assay. It counts as biochemical. Particulars: ATP 10 μM. Here is the method:
as §1

The target of another series is FLT3 (ITD)-NPOS (Homo sapiens, UniProt P36888). The series can be described thus: FLT3 mutant enzyme activity, HotSpot assay. The note with it: ATP 10 μM. It counts as biochemical. Here is the method: as §1
A further series relates to VERO. The series can be described thus: Cytotoxicity test (cell counting kit-8). It counts as cell-based, African green monkey. The note with it: Chlorocebus sabaeus, WST-8. From the text: (§2) Cell counting kit-8 assay is a general test method for identifying cell viability using a pale yellow tetrazolium salt called “WST-8”. WST-8, which is soluble in water, is degraded by a dehydrogenase present in the cells, forming orange formazan. Formazan dye is formed by dehydrogenase activity proportional to the number of viable cells, and thus can be used as an indicator for cell viability. The Hill equation of Graphpad Prism was used for analysis.
For orientation: Formazan colour is commonly taken as a measure of viable cells.

Another series deals with HFL-1. The series can be described thus: Cytotoxicity test (cell counting kit-8). The note with it: Homo sapiens, HFL1, WST-8. Type of series: cell-based.
Text: as §2

The subject of a further series is L929. Briefly: Cytotoxicity test (cell counting kit-8). Type of series: cell-based. The note with it: Mus musculus, WST-8.
Text: as §2

A further series deals with NIH3T3. Briefly: Cytotoxicity test (cell counting kit-8). It counts as cell-based. Particulars: Mus musculus, WST-8.
Text: as §2

A further series has as its target CYP 1A2 (Homo sapiens, UniProt P05177). The series can be described thus: CYP450 assay (luminescence). It counts as in vitro ADME. The note with it: human, CYP 1A2 enzyme with substrate; compound at 10 μM; read-out: inhibitory activity against human CYP 1A2. Here is the method:
(§3) Compound 5 and a positive control stock solution were diluted with water to prepare a 40 μM working solution, and a solution containing an enzyme and a substrate was prepared using water and buffer. Compound 5/control/positive control and the solution were each dispensed on a 96-well and preincubated at 37° C. for 10 minutes. The resulting substance was reacted with NADPH for 20 minutes at 37° C. and a detection reagent was added to terminate the reaction. After stabilization at room temperature for 20 minutes, a luminescence signal was measured.

For a further series, the target named is CYP 3A4 (Homo sapiens, UniProt P08684). The series can be described thus: CYP450 assay (luminescence). It counts as in vitro ADME. The note with it: CYP 3A4 enzyme with substrate, compound at 10 μM, read-out: inhibitory activity against human CYP 3A4. Here is the method:
as §3

The target in the next series is CYP 2C19 (Homo sapiens, UniProt P33261). Briefly: CYP450 assay (luminescence). It counts as in vitro ADME. Particulars: CYP 2C19 enzyme with substrate, compound at 10 μM, read-out: inhibitory activity against human CYP 2C19. Here is the method: (§4) The resulting substance was reacted with NADPH for 20 minutes at 37° C. and a detection reagent was added to terminate the reaction. After stabilization at room temperature for 20 minutes, a luminescence signal was measured.
Chain of CYP 2C19 (P33261 whole entry): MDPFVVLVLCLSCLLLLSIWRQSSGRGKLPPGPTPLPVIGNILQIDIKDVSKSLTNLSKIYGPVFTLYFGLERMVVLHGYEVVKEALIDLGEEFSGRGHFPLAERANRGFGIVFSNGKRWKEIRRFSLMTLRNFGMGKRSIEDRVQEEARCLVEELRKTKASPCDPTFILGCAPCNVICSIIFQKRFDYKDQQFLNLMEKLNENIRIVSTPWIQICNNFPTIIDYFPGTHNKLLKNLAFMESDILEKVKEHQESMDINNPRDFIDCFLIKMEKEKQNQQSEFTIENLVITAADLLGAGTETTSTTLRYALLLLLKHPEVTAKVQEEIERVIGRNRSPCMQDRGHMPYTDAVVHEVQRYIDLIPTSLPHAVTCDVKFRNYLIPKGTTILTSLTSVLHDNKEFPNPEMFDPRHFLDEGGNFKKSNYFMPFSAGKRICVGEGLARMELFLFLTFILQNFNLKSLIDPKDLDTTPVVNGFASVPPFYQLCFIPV

For a further series, the target named is CYP 2C9 (Homo sapiens, UniProt P11712). Briefly: CYP450 assay (luminescence). It counts as in vitro ADME. The note with it: CYP 2C9 enzyme with substrate, compound at 10 μM, read-out: inhibitory activity against human CYP 2C9. Here is the method:
as §4

The next series addresses CYP 2D6 (Homo sapiens, UniProt P10635). The series can be described thus: CYP450 assay (luminescence). It counts as in vitro ADME. Particulars: CYP 2D6 enzyme with substrate, compound at 10 μM, read-out: inhibitory activity against human CYP 2D6. Here is the method: as §4
Series [1] is described as follows: Cytotoxicity test (cell counting kit-8), summary over respective cells. The note with it: African green monkey, human, mouse, Chinese hamster, NIH3T3 and CHO-K1 cells; criterion 10 μM; VERO, HFL-1, L929, NIH3T3, CHO-K1. It counts as cell-based.
Text: as §2

The test system of a further series is human CYP isozymes. Briefly: CYP450 assay, summary over human CYP isozymes. Type of series: in vitro ADME. The note with it: 10 μM. Here is the method: as §3

Some results are limits rather than exact numbers.

Chain of CYP 1A2 (P05177 whole entry): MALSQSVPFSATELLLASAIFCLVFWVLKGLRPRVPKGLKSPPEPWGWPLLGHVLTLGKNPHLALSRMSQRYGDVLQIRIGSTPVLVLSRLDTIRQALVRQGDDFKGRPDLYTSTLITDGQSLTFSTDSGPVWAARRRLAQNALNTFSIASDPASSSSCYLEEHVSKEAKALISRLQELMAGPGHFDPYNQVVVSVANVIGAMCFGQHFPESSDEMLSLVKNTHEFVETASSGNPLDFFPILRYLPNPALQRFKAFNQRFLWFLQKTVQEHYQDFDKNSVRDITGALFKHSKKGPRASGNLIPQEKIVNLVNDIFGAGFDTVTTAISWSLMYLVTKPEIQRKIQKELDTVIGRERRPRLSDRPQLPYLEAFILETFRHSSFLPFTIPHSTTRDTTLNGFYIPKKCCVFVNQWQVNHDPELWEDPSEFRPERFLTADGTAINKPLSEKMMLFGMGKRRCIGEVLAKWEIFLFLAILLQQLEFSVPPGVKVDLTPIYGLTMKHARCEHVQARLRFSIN
Chain of CYP 2D6 (P10635 whole entry): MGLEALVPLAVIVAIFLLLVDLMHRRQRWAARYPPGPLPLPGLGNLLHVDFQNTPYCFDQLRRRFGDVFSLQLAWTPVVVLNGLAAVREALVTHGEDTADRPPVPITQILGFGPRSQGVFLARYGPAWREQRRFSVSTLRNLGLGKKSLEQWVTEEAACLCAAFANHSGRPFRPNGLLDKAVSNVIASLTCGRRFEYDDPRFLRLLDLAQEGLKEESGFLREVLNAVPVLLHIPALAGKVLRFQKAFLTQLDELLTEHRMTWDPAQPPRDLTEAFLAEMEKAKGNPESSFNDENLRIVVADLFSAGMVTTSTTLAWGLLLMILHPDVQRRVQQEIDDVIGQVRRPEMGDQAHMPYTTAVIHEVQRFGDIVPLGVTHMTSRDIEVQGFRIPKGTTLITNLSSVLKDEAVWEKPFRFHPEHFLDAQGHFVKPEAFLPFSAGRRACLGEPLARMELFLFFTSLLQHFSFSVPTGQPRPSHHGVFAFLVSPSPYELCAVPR
Chain of CYP 2C9 (P11712 whole entry): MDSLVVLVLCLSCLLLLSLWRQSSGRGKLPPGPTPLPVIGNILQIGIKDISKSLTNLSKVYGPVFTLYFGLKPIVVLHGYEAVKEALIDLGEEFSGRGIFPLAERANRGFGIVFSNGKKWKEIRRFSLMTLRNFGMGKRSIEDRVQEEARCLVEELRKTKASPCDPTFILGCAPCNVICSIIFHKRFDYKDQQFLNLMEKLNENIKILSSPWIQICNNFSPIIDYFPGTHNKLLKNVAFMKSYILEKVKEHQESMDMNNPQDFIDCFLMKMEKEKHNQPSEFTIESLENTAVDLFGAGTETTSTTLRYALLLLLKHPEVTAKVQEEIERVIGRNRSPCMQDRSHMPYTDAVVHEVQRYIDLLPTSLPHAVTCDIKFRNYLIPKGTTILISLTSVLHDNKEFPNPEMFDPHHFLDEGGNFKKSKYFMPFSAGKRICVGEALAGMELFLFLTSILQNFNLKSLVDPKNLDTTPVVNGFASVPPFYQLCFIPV
Chain of CYP 3A4 (P08684 whole entry): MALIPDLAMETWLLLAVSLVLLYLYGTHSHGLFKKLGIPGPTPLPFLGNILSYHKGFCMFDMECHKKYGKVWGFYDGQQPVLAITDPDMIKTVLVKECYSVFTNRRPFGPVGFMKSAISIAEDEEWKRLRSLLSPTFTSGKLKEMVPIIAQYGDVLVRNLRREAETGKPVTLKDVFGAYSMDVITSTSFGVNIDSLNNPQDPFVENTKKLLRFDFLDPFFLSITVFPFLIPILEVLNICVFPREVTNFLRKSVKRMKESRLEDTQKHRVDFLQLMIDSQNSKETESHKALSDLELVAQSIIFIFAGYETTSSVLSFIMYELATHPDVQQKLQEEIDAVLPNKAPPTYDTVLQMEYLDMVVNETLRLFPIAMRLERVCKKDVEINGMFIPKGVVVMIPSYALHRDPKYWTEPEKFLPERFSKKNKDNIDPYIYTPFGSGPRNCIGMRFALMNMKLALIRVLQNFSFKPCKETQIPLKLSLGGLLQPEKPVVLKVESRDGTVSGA

By IC50 is commonly meant the point on the concentration scale where inhibition reaches its midpoint. The low end stands for greater potency in that assay, the high end for weaker potency in that assay. Regarding `Clc1cnc(Nc2ccc(OCCN3CCCC3)cc2)nc1NCc1ccco1` [Compound 5, 5-chloro-4-(furan-2-yl)methylamino-2-[4-{2-(pyrrolidin-1-yl)ethoxy}phenylamino]pyrimidine], the IC50 was 0.0024 µM at ARK5/NUAK1; 0.0161 µM against JAK1; 0.00885 µM at JAK2; less than 0.001 µM against FLT3 (D835Y); 0.0015 µM against FLT3 (ITD); 0.0045 µM against FLT3 (ITD)-NPOS. Moreover, the IC50 with VERO was 19.7 µM; with HFL-1 it was 35.6 µM; in the series with L929, 40.3 µM; with NIH3T3, more than 100 µM; in [1] it was not below 10 µM. For the same compound, the inhibition at 20 min, 10 µM is 1.93% at CYP 1A2; 22.1% at CYP 3A4; 15.9% on CYP 2C19; less than 1% on CYP 2C9; 14.4% at CYP 2D6. Moreover, in the series with human CYP isozymes, the “CYP inhibition conclusion (more than 50% inhibition needs attention)” value was “stable”.
